Results taken from article PMC11434354, “Metabolic and Pharmacokinetic Profiling Studies of N, N-Dimethylaniline-Heliamine in Rats by UHPLC-Q-Orbitrap MS/MS” (Molecules, 2024).

How the values were obtained:
[1] = Long-term storage stability of DH stock solutions; type: physicochemical
Method: (§1) Although acetonitrile precipitates most of the protein, plasma samples contain phospholipids, metabolites, etc., that interfere with the detection of DH and IS. Specificity was mainly examined at DH and IS retention times without interference peaks in blank plasma. In addition, samples tested after administration should not show interfering peaks at the DH and IS peak times. The standard curves were made up of 8 nonzero analyte points, and the linearity was tested. The correlation of peak area (analyte/IS) with the labeled plasma concentration was plotted for regression analysis. This analyte was predicted to have a correlation coefficient (r^2) of more than 0.99 with the corresponding standard curve. The relative standard deviation (RSD) and relative error (RE) values were calculated by measuring six repeated QC samples on the same day to evaluate the intra-day precision and accuracy. Inter-day precision and accuracy were characterized by RSD and RE, respectively. The recoveries were determined by examining the ratio of the peak areas of DH before and after extraction. The matrix effect is the ratio of the peak area of DH added to plasma and DH dissolved in the solvent. The stability evaluation should guarantee that the concentration of the analyte remains unchanged throughout the sample preparation and analysis process, as well as during storage. Stability studies include long-term storage stability at −80 °C (1, 7 and 15 days); repeated freeze–thaw stability; autosampler stability; room temperature stability; and long-term storage stability of stock solutions.

[2] = Stability of DH in rat plasma samples (autosampler, −80 °C storage, room temperature, freeze–thaw); type: in vitro ADME; settings: for Accuracy, 4 h / Accuracy, 8 h / Accuracy, 12 h: autosampler; for Accuracy, Room temper: room temperature; for Accuracy, 1 day / Accuracy, 7 days / Accuracy, 15 days: stored at −80 °C; for Accuracy, Thaw: three freeze–thaw cycles
Method: Three concentrations were used to test the stability of plasma samples in a variety of circumstances. […] Its accuracy range was 97.46–109.44%. When samples were stored at −80 °C, the accuracy of the samples ranged from 99.44% to 109.22% at three concentrations on days 1, 7, and 15. The prepared QC samples were placed in the autosampler and injected at 4, 8, and 12 h. The accuracy was calculated to be in the range of 103.34–110.57%. The prepared stability samples were stored at −80 °C and the accuracy range was measured from 97.37% to 104.56% after three sequential freeze–thaw cycles.
DH was added to the blank plasma to produce concentrations of 1, 10, 100, and 500 ng/mL QC samples. Then, 10 µL DH was added to blank plasma and vortexed for 3 s. Next, 10 µL IS was added to the plasma and vortexed for 3 s, while 300 µL of acetonitrile was added to the above plasma, vortexed for 1 min, and centrifuged for 7 min. The mixture supernatant was collected and blown dry at 40 °C under nitrogen. Blow-dried samples were re-dissolved in 100 μL of 30% acetonitrile in water and centrifuged for 7 min.
as §1

[3] = Metabolite identification of DH in rat plasma, urine, feces and rat liver microsomes by UHPLC-Q-Orbitrap MS/MS; type: in vivo; settings: rat plasma
Method: For the analysis of DH metabolites, the same UHPLC-MS/MS system was used for the plasma analysis, and the ACQUIT UHPLC BEH C18 column was also utilized. Mobile phase A consisted of 0.1% formic acid in water (v/v), while mobile phase B comprised acetonitrile. The flow rate was maintained at 0.2 mL/min, with a 10 µL injection volume. The column temperature was kept constant at 35 °C, and the RS autosampler temperature was maintained at 10 °C. The gradient elution was as follows: 0–3 min(5%B), 3–11 min (7%B), 11–18 min (7%B), and 18–45 min (30%B). A full MS/dd MS^2 mode in positive heated electrospray ionization (HESI) with 140,000 (for MS) and 17,500 (for MS/MS) resolutions was used for the Q–Exactive Plus Orbitrap MS. The compounds identified in full MS/dd MS^2 mode will be scanned using PRM scanning. The following MS parameters were employed: AGC target, 1 × 10^6; Maximum IT, 100 ms; Spray voltage, 3.2 kV; Capillary temp, 320 °C; S-lens RF level, 55; HCD Energy 20, 40, and 60.
Rat liver microsomes were used for in vitro experiments to study DH metabolism in rats more quickly and easily. After that, the cofactors of phases I and II were added to create the phase I and phase II metabolic systems. The composition of the reagent kit and the procedure can be found in our previous work.
For the plasma study, 100 µL of plasma was obtained from rats at 0.5, 1, 2, and 4 h after medicine administration. Then, 300 µL of acetonitrile was added to the above plasma, vortexed for 1 min, and centrifuged for 7 min. The supernatant was collected, and the remaining liquid was dried using nitrogen gas at 40 °C. The blow-dried samples were re-dissolved in 100 µL methanol, sonicated for 1 min, and centrifuged for 7 min.
Urine was collected during the period spanning from 0 to 48 h following administration, with each period’s combined urine comprising 10 mL and 30 mL of acetonitrile added thereto. After a 10 min interval of sonication, the urine samples were transferred into 1.5 mL centrifuge tubes, vortexed for 1 min, and then centrifuged at a speed of 14,000 rpm for 10 min. Successively, the supernatant was merged and subjected to drying by nitrogen gas at 40 °C. The blow-dried samples were re-dissolved in 100 µL of methanol, sonicated for 1 min, and centrifuged for 7 min.
For the fecal study, feces were collected within 0–48 h following administration, dried to powder at room temperature in a shaded area, and combined to yield 8 mL per period, to which 40 mL of acetonitrile was added. Following 30 min of sonication, the samples were transferred to 1.5 mL centrifuge tubes and centrifuged at 14,000 rpm for 10 min. The supernatant was collected and dried with nitrogen at 40 °C before analysis via UHPLC-MS/MS. Before analysis, the blow-dried samples were re-dissolved in 100 µL of methanol, sonicated for 1 min, and centrifuged for 7 min.
Compound Discovery 3.3 was used for data processing. The MS spectrometric features mainly include retention time, exact mass, peak intensity, and fragment ions. The data processing mainly included selecting spectra, aligning retention times, creating pattern traces, creating fish traces, generating expected compounds, finding expected compounds, grouping expected compounds, fish scoring, and marking background compounds. The mass tolerance is less than 5 ppm.

[4] = system: membrane surface Na^+–Ca^2+ exchange; parameters: method as in doi:10.13005/bpj/1892; settings: decreases sarcoplasmic reticulum Ca2+ release; cited from earlier work
[5] = nominal concentration 100 ng/mL
[6] = nominal concentration 500 ng/mL

COc1cc2c(cc1OC)C(c1ccc(N(C)C)cc1)NCC2 (stereo not drawn) [DH, N, N-dimethylaniline-heliamine]
Accuracy, Stock solution ([1]; nominal concentration 10 ng/mL): 104.96%
Accuracy, Stock solution [1, 5]: 99.49%
Accuracy, Stock solution [1, 6]: 96.24%
Accuracy, 4 h ([2]; nominal concentration 10 ng/mL): 110.30%
Accuracy, 8 h ([2]; nominal concentration 10 ng/mL): 108.80%
Accuracy, 12 h ([2]; nominal concentration 10 ng/mL): 110.57%
Accuracy, 4 h [2, 5]: 106.65%
Accuracy, 8 h [2, 5]: 106.69%
Accuracy, 12 h [2, 5]: 103.81%
Accuracy, 4 h [2, 6]: 105.03%
Accuracy, 8 h [2, 6]: 103.54%
Accuracy, 12 h [2, 6]: 103.34%
time stable in rat plasma samples ([2]; kept at room temperature): at least 12 h
Accuracy, Room temper ([2]; nominal concentration 10 ng/mL): 109.44%
Accuracy, Room temper [2, 5]: 101.36%
Accuracy, Room temper [2, 6]: 97.46%
Accuracy, 1 day ([2]; nominal concentration 10 ng/mL): 109.12%
Accuracy, 7 days ([2]; nominal concentration 10 ng/mL): 108.43%
Accuracy, 15 days ([2]; nominal concentration 10 ng/mL): 106.68%
Accuracy, 1 day [2, 5]: 103.58%
Accuracy, 7 days [2, 5]: 106.23%
Accuracy, 15 days [2, 5]: 101.13%
Accuracy, 1 day [2, 6]: 99.17%
Accuracy, 7 days [2, 6]: 105.59%
Accuracy, 15 days [2, 6]: 94.99%
Accuracy, Thaw ([2]; nominal concentration 10 ng/mL): 100.00%
Accuracy, Thaw [2, 5]: 104.56%
Accuracy, Thaw [2, 6]: 97.37%
Rat and LM* (matrices in which DH or the metabolite was detected) [3]: P*, U*, F*, LM*
membrane surface Na+–Ca2+ exchange inhibition [4]: inhibitor
